Patent publication EP0291696A2, “Process of multiplication of epithelial cells” (Battelle-Institut e.V., priority 1987, dated 1988)

Tests used:
Keratinozyten [1] = experiment: Keratinocyte culture: cell count after 12 days and days to confluence (Beispiel 2); type: cell-based, human
Keratinozyten [2] = experiment: Keratinocyte culture with FCS or Nu-Serum: cell count after 12 days and days to confluence (Beispiel 3); type: cell-based, human
Description: Kerationozyten wurden durch Trypsinierung von Haut nach der Methode von M. Green (Green, M. et al, PNAS 76 (1979) 5665) gewonnen und in einer Zelldichte von 2,5 x 10 ⁴ Zellen/cm² ausgesät. Die Hautproben in den Beispielen 1, 2 und 3 stammten von Patienten die zwischen 30 und 40 Jahre alt waren. Zusätzlich wurden die Kulturen mit 2 x 10 ⁴ Zellen/cm² letal bestrahlter 3T3-Fibroblasten inokuliert, beschrieben im US-Patent 4,016,036.
Als Medium diente eine Mischung aus DMEM und HAM's F 12 (3:1) mit folgenden Zusätzen: Hydrocortison 0,4 ug/ml Insulin 5 ug/ml Triiodo-Thyronin 2x10⁻⁹M Transferrin 5 ug/ml Adenin 8 x 10⁻⁴ M Gentamycin, Penicillin, Streptomycin je 50 ug/ml Fötales Kälberserum 10 % EGF (nach 2 Tagen) 10 ng/ml
In diesem Experiment, das wie unter Beispiel 1 beschrieben durchgeführt wurde, wurden verschiedene Forskolinkonzentrationen unter Verwendung bzw. in Vergleich von 10 % fötalem Kälberserum (FCS) und einem synthetischen Serum der Firma Biomedica Wien (Nu-Serum Nr. 1) untersucht.

C=C[C@@]1(C)CC(=O)[C@]2(O)[C@@]3(C)[C@@H](O)CCC(C)(C)[C@@H]3[C@H](O)[C@H](OC(C)=O)[C@@]2(C)O1 [Forskolin]
Anzahl der Tage bis zur Konfluenz (Keratinozyten [1]; 5x10^-5M): 18 Tage | Zellzahl nach 12 Tagen in einer 25cm^2 Kultur-schale (Keratinozyten [1]; 5x10^-5M): 13 x 10^5 | Anzahl der Tage bis zur Konfluenz (Keratinozyten [1]; 5x10^-6M): 14 Tage | Zellzahl nach 12 Tagen in einer 25cm^2 Kultur-schale (Keratinozyten [1]; 5x10^-6M): 23 x 10^5 | Anzahl der Tage bis zur Konfluenz (Keratinozyten [1]; 10^-5M): 14 Tage | Zellzahl nach 12 Tagen in einer 25cm^2 Kultur-schale (Keratinozyten [1]; 10^-5M): 25 x 10^5 | Anzahl der Tage bis zur Konfluenz (Keratinozyten [1]; 10^-6M): 18 Tage | Zellzahl nach 12 Tagen in einer 25cm^2 Kultur-schale (Keratinozyten [1]; 10^-6M): 12 x 10^5 | Anzahl der Tage bis zur Konfluenz (Keratinozyten [1]; 10^-7M): 24 Tage | Zellzahl nach 12 Tagen in einer 25cm^2 Kultur-schale (Keratinozyten [1]; 10^-7M): 8 x 10^5 | Zellzahl nach 12 Tagen in einer 25cm^2 Kultur-schale (Keratinozyten [1]; 10^-8M): 2,5 x 10^5 | Reduction of the Zeit bis zum Erreichen einer konfluenten Keratinozytenkultur im Vergleich zu Cholera Toxin (Keratinozyten [1]; Forskolin 5 x 10⁻⁶ bzw. 10⁻⁵ in the medium): ≤ 40% | Anzahl der Tage bis zur Konfluenz (Keratinozyten [2]; FCS, 5x10^-5M): 18 Tage | Zellzahl nach 12 Tagen in einer 25cm^2 Kultur-schale (Keratinozyten [2]; FCS, 5x10^-5M): 16 x 10^5 | Anzahl der Tage bis zur Konfluenz (Keratinozyten [2]; FCS, 5x10^-6M): 15 Tage | Zellzahl nach 12 Tagen in einer 25cm^2 Kultur-schale (Keratinozyten [2]; FCS, 5x10^-6M): 24 x 10^5 | Anzahl der Tage bis zur Konfluenz (Keratinozyten [2]; FCS, 10^-5M): 14 Tage | Zellzahl nach 12 Tagen in einer 25cm^2 Kultur-schale (Keratinozyten [2]; FCS, 10^-5M): 32 x 10^5 | Anzahl der Tage bis zur Konfluenz (Keratinozyten [2]; FCS, 10^-6M): 20 Tage | Zellzahl nach 12 Tagen in einer 25cm^2 Kultur-schale (Keratinozyten [2]; FCS, 10^-6M): 14 x 10^5 | Anzahl der Tage bis zur Konfluenz (Keratinozyten [2]; Nu-Serum, 5x10^-5M): 18 Tage | Zellzahl nach 12 Tagen in einer 25cm^2 Kultur-schale (Keratinozyten [2]; Nu-Serum, 5x10^-5M): 13 x 10^5 | Anzahl der Tage bis zur Konfluenz (Keratinozyten [2]; Nu-Serum, 5x10^-6M): 16 Tage | Zellzahl nach 12 Tagen in einer 25cm^2 Kultur-schale (Keratinozyten [2]; Nu-Serum, 5x10^-6M): 25 x 10^5 | Anzahl der Tage bis zur Konfluenz (Keratinozyten [2]; Nu-Serum, 10^-5M): 15 Tage | Zellzahl nach 12 Tagen in einer 25cm^2 Kultur-schale (Keratinozyten [2]; Nu-Serum, 10^-5M): 27 x 10^5 | Anzahl der Tage bis zur Konfluenz (Keratinozyten [2]; Nu-Serum, 10^-6M): 20 Tage | Zellzahl nach 12 Tagen in einer 25cm^2 Kultur-schale (Keratinozyten [2]; Nu-Serum, 10^-6M): 14 x 10^5
